According to patent US5681826A, “Saccharide composition with reduced reducibility, and preparation and uses thereof” (Kabushiki Kaisha Hayashibara Seibutsu Kagaku Kenkyujo, priority 1994, dated 1997):

Legend:
α-amylase = assay: Hydrolysis by α-amylase derived from pig pancreas; type: in vitro ADME; details: for Saccharide composition of hydrolysate by α-amylase: G1 (glucose) / Saccharide composition of hydrolysate by α-amylase: G2 (maltose) / Saccharide composition of hydrolysate by α-amylase: G3 (maltotriose) / Saccharide composition of hydrolysate by α-amylase: P I / Saccharide composition of hydrolysate by α-amylase: P II: one unit, pH 6.9, 37°C., 18 hours
Method: (§1) The enzymatic reaction with the α-amylase was as follows: Dissolve 10 mg of a substrate in one ml of 50 mM phosphate buffer (pH 6.9), mix the resultant solution with one unit of the α-amylase, and incubate the resultant mixture at 37° C. for 18 hours. The enzymatic reaction with the α-glucosidase was conducted under the same conditions as in the case of α-amylase except that 50 mM acetate buffer (pH 4.0) was used as a buffer. The enzymatic reaction using the rat intestinal acetone powder was carried out under the same conditions as in the case of α-amylase except that 50 mM maleate buffer (pH 6.0) was used as a buffer. The saccharide compositions obtained by the α-amylase, α-glucosidase and rat intestinal acetone powder are respectively in Tables 6, 7 and 8.

α-glucosidase = assay: Hydrolysis by α-glucosidase derived from rice; type: biochemical; details: pH 4.0, 37°C., 18 hours
Method: as §1

[1] = Maillard reaction with glycine, absorbance at 480 nm; type: physicochemical; details: for Coloration degree (480 nm): one % glycine, 10% saccharide, pH 7.0, 100°C., 90 min, 1-cm cell
Method: A solution, containing one % glycine and 10% of a saccharide preparation PI, P II, P III, P IV or P V in Experiment 4 and 50 mM phosphate buffer (pH 7.0), was kept at 100° C. for 90 min, followed by cooling the resultant solution, and determining for absorbance at a wave length of 480 nm in a 1-cm cell. As a control, maltotriose, maltotetraose, maltopentaose, maltohexaose and maltoheptaose, as a material for the saccharide preparations, were similarly treated as above, and measured for absorbance at a wave length of 480 nm.
A solution, containing one % of glycine, 10% of a high-purity trehalose preparation with a purity of 99.5%, d.s.b., obtained by the method in Experiment 17, and 50 mM phosphate buffer (pH 7.0), was kept at 100° C. for 90 min, followed by cooling the resultant solution and determining the absorbance at a wave length of 480 nm in a 1-cm cell. As a control, glucose and maltose were similarly treated as above, and the resultants were determined for absorbance at a wave length of 480 nm.

β-amylase = assay: Hydrolysis by β-amylase; type: biochemical
[2] = Acute toxicity test (Experiment 8); details: mouse, in vivo, po
Description: (§2) By using 7-week old dd-strain mice, the non-reducing saccharide preparation P I, P II, P III, P IV or P V was orally administered to the mice for acute toxicity test.

mice = assay: Acute toxicity test (Experiment 8); details: oral, highest possible doses
Description: as §2

[3] = Hydrolysis by rat intestinal acetone powder; type: in vitro ADME; details: pH 6.0, 37°C., 18 hours
Method: as §1

[4] = biological target: T1, trehalose-releasing enzyme (Rhizobium sp. M-11, UniProt Q53238); assay: Action of trehalose-releasing enzyme on α-glycosyltrehalose and maltooligosaccharides (Table 13); type: biochemical; details: 20% substrate, 2 units/g, 40°C., pH 7.0, 48 hours; label = substrate
T1 construct: M-11 culture
T1 sequence (Q53238 1-596): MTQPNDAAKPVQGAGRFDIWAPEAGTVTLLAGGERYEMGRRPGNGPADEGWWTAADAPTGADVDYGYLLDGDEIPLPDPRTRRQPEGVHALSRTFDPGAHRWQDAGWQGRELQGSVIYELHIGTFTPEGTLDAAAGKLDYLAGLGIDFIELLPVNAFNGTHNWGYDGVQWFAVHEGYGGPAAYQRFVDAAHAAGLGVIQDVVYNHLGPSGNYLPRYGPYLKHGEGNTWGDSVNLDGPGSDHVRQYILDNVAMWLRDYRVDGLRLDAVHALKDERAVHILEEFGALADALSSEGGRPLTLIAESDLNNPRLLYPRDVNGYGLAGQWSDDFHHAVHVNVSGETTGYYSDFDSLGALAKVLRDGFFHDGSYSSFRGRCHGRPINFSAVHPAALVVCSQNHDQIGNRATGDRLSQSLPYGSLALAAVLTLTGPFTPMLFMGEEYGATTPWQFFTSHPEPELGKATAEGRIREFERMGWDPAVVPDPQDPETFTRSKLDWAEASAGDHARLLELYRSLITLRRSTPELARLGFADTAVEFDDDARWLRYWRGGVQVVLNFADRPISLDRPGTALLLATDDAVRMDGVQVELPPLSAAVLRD
Method: An aqueous solution containing 20%, d.s.b., of one of the above 5 non-reducing saccharide preparations, namely α-glycosyltrehalose preparations, was prepared, followed by mixing it with 2 units/g substrate, d.s.b., of the purified trehalose-releasing enzyme obtained in Experiment 15, and subjecting the resultant to an enzymatic reaction at 40° C. and pH 7.0 for 48 hours. The resultant each reaction mixture was desalted, and analyzed for saccharide composition on HPLC using "WAKOBEADS WB-T-330 column", a column of Wako Pure Chemical Industries Ltd., Tokyo, Japan. As a control, a fresh preparation of the same trehalose-releasing enzyme was allowed to act on maltotriose, maltotetraose, maltopentaose, maltohexaose or maltoheptaose, and the resultant each reaction mixture was analyzed for saccharide composition on HPLC.

[5] = Reducing power on the Somogyi-Nelson's method expressed by DE; type: physicochemical; details: d.s.b.
Method: The reducing powders of these novel high-purity saccharides were determined on the Somogyi-Nelson's method and expressed by DE.

glucoamylase = assay: Enzymatic hydrolysis by glucoamylase; type: biochemical; details: for Glucose / Molecular ratio (Glucose/Trehalose) / Trehalose: one unit glucoamylase, pH 4.5, 40°C., 6 hours
Method: Fifty mg aliquots of non-reducing saccharide preparations P I, P II, P III, P IV and P V in Experiment 4 were respectively dissolved in one ml of 50 mM acetate buffer (pH 4.5), admixed with one unit of glucoamylase commercialized by Seikagaku-Kogyo Co., Ltd., Tokyo, Japan, to effect enzymatic hydrolysis at 40° C. for 6 hours. HPLC analysis only detected glucose and trehalose in all resultant mixtures. The percentages and the molecular ratios of glucose to trehalose in each saccharide are in Table 5.

| Structure (SMILES) | Saccharide composition of hydrolysate by α-amylase: G1 (glucose) (α-amylase) | Saccharide composition of hydrolysate by α-amylase: G2 (maltose) (α-amylase) | Saccharide composition of hydrolysate by α-amylase: G3 (maltotriose) (α-amylase) | Saccharide composition of hydrolysate by α-amylase: P I (α-amylase) | Saccharide composition of hydrolysate by α-amylase: P II (α-amylase) | Saccharide composition of hydrolysate by α-glucosidase: Glucose (α-glucosidase) | Saccharide composition of hydrolysate by α-glucosidase: Other saccharides (α-glucosidase) | Saccharide composition of hydrolysate by α-glucosidase: Trehalose (α-glucosidase) | Coloration degree relative to corresponding material maltooligosaccharides [1] | Coloration degree (480 nm) [1] | Hydrolysis by β-amylase (β-amylase) | LD50 [2] | Mortality (mice) | Saccharide composition of hydrolysate by rat intestinal acetone powder: Glucose [3] | Saccharide composition of hydrolysate by rat intestinal acetone powder: Other saccharides [3] | Saccharide composition of hydrolysate by rat intestinal acetone powder: Trehalose [3] | Percentage of reducing saccharide released (glucose, maltose, maltotriose, maltotetraose or maltopentaose) [4] | Percentage of trehalose released [4] | DE (reducing power) [5] | Hydrolysis by glucoamylase (glucoamylase) | further results |
| --- | --- | --- | --- | --- | --- | --- | --- | --- | --- | --- | --- | --- | --- | --- | --- | --- | --- | --- | --- | --- | --- |
| OC[C@H]1O[C@H](O[C@H]2O[C@H](CO)[C@@H](O[C@H]3O[C@H](CO)[C@@H](O[C@H]4O[C@H](CO)[C@@H](O)[C@H](O)[C@H]4O)[C@H](O)[C@H]3O)[C@H](O)[C@H]2O)[C@H](O)[C@@H](O)[C@@H]1O [P II, α-maltosyltrehalose] | 0 | 0.8 | 0.4 | 0 | 98.8 | 52.1% | 0.3% | 47.6% | 3-6% | 0.018 | not hydrolyzed | ≥ 50000 mg/kg | no mouse died | 52.5% | 0.4% | 47.1% | 44.4% | 44.3% | 0.35 | hydrolyzed into 2 glucose molecules and one trehalose molecule | Hydrolysis by α-amylase (α-amylase): not substantially hydrolyzed; Glucose (glucoamylase): 52.0%; Molecular ratio (Glucose/Trehalose) (glucoamylase): 2.06; Trehalose (glucoamylase): 48.0% |
| OC[C@H]1O[C@H](O[C@H]2O[C@H](CO)[C@@H](O[C@H]3O[C@H](CO)[C@@H](O[C@H]4O[C@H](CO)[C@@H](O[C@H]5O[C@H](CO)[C@@H](O)[C@H](O)[C@H]5O)[C@H](O)[C@H]4O)[C@H](O)[C@H]3O)[C@H](O)[C@H]2O)[C@H](O)[C@@H](O)[C@@H]1O [P III, α-maltotriosyltrehalose] | 1.2 | 33.0 | 0 | 61.0 | 4.8 | 61.7% | 0.2% | 38.1% | 3-6% | 0.012 | one maltose molecule and one P I molecule | ≥ 50000 mg/kg | no mouse died | 62.0% | 0.4% | 37.6% | 60.0% | 39.5% | 0.10 | hydrolyzed into 3 glucose molecules and one trehalose molecule | Hydrolysis by α-amylase (α-amylase): hydrolyzed by the α-amylase into lower molecular weight oligosaccharides; Glucose (glucoamylase): 61.4%; Molecular ratio (Glucose/Trehalose) (glucoamylase): 3.02; Trehalose (glucoamylase): 38.6% |
| OC[C@H]1O[C@H](O[C@H]2O[C@H](CO)[C@@H](O[C@H]3O[C@H](CO)[C@@H](O[C@H]4O[C@H](CO)[C@@H](O[C@H]5O[C@H](CO)[C@@H](O[C@H]6O[C@H](CO)[C@@H](O)[C@H](O)[C@H]6O)[C@H](O)[C@H]5O)[C@H](O)[C@H]4O)[C@H](O)[C@H]3O)[C@H](O)[C@H]2O)[C@H](O)[C@@H](O)[C@@H]1O [P IV, α-maltotetraosyltrehalose] | 1.6 | 7.5 | 40.4 | 47.2 | 3.3 | 69.5% | 0.3% | 30.2% | 3-6% | 0.016 | one maltose molecule and one P II molecule | ≥ 50000 mg/kg | no mouse died | 68.8% | 0.4% | 30.8% | 65.5% | 34.2% | 0.27 | hydrolyzed into 4 glucose molecules and one trehalose molecule | Hydrolysis by α-amylase (α-amylase): hydrolyzed by the α-amylase into lower molecular weight oligosaccharides; Glucose (glucoamylase): 68.3%; Molecular ratio (Glucose/Trehalose) (glucoamylase): 4.09; Trehalose (glucoamylase): 31.7% |
| OC[C@H]1O[C@H](O[C@H]2O[C@H](CO)[C@@H](O[C@H]3O[C@H](CO)[C@@H](O[C@H]4O[C@H](CO)[C@@H](O[C@H]5O[C@H](CO)[C@@H](O[C@H]6O[C@H](CO)[C@@H](O[C@H]7O[C@H](CO)[C@@H](O)[C@H](O)[C@H]7O)[C@H](O)[C@H]6O)[C@H](O)[C@H]5O)[C@H](O)[C@H]4O)[C@H](O)[C@H]3O)[C@H](O)[C@H]2O)[C@H](O)[C@@H](O)[C@@H]1O [P V, α-maltopentaosyltrehalose] | 1.0 | 8.6 | 35.3 | 10.2 | 44.9 | 71.4% | 0.3% | 28.3% | 3-6% | 0.015 | 2 maltose molecules and one P I molecule | ≥ 50000 mg/kg | no mouse died | 73.4% | 0.1% | 26.5% | 70.6% | 29.1% | 0.23 | hydrolyzed into 5 glucose molecules and one trehalose molecule | Glucose (glucoamylase): 72.9%; Molecular ratio (Glucose/Trehalose) (glucoamylase): 5.11; Trehalose (glucoamylase): 27.1% |
